Source: US20250195521A1 (Revolution Medicines, Inc., priority 2020, published 2025)
pEC50, pIC50: −log10 of the molar value. Where two headings read alike, the source gives them in different places.

Legend:
[1] = tested on: NCI-H358 cells (K-Ras G12C); test: CellTiter-Glo cell viability, NCI-H358; type: cell-based, human; conditions: Homo sapiens, NCI-H358, 120 h, read-out: H358 Cell Viability IC50
Method in brief: (§1)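 Endpoint: CellTiter-Glo luminescence on day 5, following ~30 min at room temperature. Data as (sample/mean DMSO)×100, four-parameter logistic fit.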

[2] = molecular target: KRAS G13C (Homo sapiens (Human), UniProt P01116+P62937, G13C); test: Ras-Raf disruption/FRET/MOA assay (BRAF RBD, Cyclophilin A); type: biochemical; conditions: read-out: KRAS G13C FRET IC50
Chain of KRAS G13C (P01116 other isoform, or with tags, fused parts or gaps G13C): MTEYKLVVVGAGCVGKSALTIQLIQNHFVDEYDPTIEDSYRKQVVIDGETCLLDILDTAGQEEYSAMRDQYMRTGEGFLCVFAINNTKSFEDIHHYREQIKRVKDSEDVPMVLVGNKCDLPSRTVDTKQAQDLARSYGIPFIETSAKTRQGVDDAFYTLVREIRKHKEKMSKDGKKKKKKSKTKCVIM
Chain of KRAS G13C (P62937 whole entry): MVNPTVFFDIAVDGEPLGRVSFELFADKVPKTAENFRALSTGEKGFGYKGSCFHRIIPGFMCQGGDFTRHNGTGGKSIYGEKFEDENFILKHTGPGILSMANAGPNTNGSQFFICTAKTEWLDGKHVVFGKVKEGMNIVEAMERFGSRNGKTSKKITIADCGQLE
Method in brief: (§2)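 Measured: compound-facilitated Cyclophilin A:Ras complex blocking RAF RBD binding. Conditions: 12.5 nM Ras-GMPPNP, 50 nM BRAF RBD, 25 μM CypA, 3 h plus 1.5 h detection. Output: IC50 from TR-FRET ratio.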

[3] = molecular target: KRAS G13D (Homo sapiens (Human), UniProt P01116+P62937, G13D); test: as above; type: biochemical; conditions: read-out: KRAS G13D FRET data IC50
Chain of KRAS G13D (P01116 other isoform, or with tags, fused parts or gaps G13D): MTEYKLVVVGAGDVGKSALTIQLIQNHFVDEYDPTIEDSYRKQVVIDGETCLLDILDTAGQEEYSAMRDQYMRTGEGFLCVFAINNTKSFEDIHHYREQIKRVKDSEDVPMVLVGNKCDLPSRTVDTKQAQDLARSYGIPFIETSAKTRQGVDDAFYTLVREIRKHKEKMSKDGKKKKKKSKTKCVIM
Chain of KRAS G13D (P62937 whole entry): as the sequence (P62937 whole entry) above
Method in brief: as §2

[4] = molecular target: KRAS WT (Homo sapiens (Human), UniProt P01116+P62937); test: as above; type: biochemical; conditions: read-out: KRAS WT FRET data IC50
Chain of KRAS WT (P01116 other isoform, or with tags, fused parts or gaps): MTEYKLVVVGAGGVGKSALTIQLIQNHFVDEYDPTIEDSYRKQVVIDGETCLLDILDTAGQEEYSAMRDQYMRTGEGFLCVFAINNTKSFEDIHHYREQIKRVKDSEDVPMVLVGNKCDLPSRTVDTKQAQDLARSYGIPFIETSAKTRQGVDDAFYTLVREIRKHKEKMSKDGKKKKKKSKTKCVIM
Chain of KRAS WT (P62937 whole entry): as the sequence (P62937 whole entry) above
Method in brief: as §2

[5] = molecular target: NRAS G12C (Homo sapiens (Human), UniProt P01111+P62937, G12C); test: as above; type: biochemical; conditions: read-out: NRAS G12C FRET data IC50
Chain of NRAS G12C (P01111 whole entry G12C): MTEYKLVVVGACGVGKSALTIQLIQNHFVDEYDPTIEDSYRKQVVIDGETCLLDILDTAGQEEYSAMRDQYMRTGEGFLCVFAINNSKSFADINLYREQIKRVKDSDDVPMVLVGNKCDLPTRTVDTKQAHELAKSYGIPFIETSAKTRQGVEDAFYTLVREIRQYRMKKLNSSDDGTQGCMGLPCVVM
Chain of NRAS G12C (P62937 whole entry): as the sequence (P62937 whole entry) above
Method in brief: as §2

[6] = molecular target: KRAS G12C (Homo sapiens (Human), UniProt P01116+P62937, G12C); test: as above; type: biochemical; conditions: read-out: KRAS G12C FRET IC50
Chain of KRAS G12C (P01116-2 other isoform, or with tags, fused parts or gaps G12C): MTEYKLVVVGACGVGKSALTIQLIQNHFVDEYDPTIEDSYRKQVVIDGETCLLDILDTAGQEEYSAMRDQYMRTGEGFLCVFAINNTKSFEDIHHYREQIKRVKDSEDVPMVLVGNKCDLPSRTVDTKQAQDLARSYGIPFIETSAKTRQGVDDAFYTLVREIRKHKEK
Chain of KRAS G12C (P62937 whole entry): as the sequence (P62937 whole entry) above
Method in brief: as §2

[7] = molecular target: KRAS G12S (Homo sapiens (Human), UniProt P01116+P62937, G12S); test: as above; type: biochemical; conditions: read-out: KRAS G12S FRET IC50
Chain of KRAS G12S (P01116 other isoform, or with tags, fused parts or gaps G12S): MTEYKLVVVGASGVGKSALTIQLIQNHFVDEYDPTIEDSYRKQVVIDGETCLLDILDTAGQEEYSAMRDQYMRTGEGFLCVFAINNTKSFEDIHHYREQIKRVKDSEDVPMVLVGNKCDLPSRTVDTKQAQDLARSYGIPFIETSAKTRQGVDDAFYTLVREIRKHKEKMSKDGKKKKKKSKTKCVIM
Chain of KRAS G12S (P62937 whole entry): as the sequence (P62937 whole entry) above
Method in brief: as §2

[8] = molecular target: KRAS G12V (Homo sapiens (Human), UniProt P01116+P62937, G12V); test: as above; type: biochemical; conditions: read-out: KRAS G12V FRET IC50
Chain of KRAS G12V (P01116 other isoform, or with tags, fused parts or gaps G12V): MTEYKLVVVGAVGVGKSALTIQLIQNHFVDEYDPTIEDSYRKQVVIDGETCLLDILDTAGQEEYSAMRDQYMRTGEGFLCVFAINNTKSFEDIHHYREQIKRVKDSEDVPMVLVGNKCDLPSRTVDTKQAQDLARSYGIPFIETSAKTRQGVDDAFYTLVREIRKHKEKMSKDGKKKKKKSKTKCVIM
Chain of KRAS G12V (P62937 whole entry): as the sequence (P62937 whole entry) above
Method in brief: as §2

[9] = molecular target: KRAS G12D (Homo sapiens (Human), UniProt P01116+P62937, G12D); test: as above; type: biochemical; conditions: read-out: KRAS G12D FRET IC50
Chain of KRAS G12D (P01116 other isoform, or with tags, fused parts or gaps G12D): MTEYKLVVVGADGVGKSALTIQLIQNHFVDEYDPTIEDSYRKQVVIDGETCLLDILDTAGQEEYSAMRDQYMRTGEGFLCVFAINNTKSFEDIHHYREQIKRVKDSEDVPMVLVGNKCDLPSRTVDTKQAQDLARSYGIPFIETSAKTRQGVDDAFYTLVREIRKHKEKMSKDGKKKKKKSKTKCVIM
Chain of KRAS G12D (P62937 whole entry): as the sequence (P62937 whole entry) above
Method in brief: as §2

[10] = tested on: Capan-1 cells (K-Ras G12V); test: CellTiter-Glo cell viability, Capan-1; type: cell-based, human; conditions: Homo sapiens, CAPAN-1, 120 h, read-out: Capan-1 Cell Viability IC50
Method in brief: as §1

[11] = tested on: K-Ras G12C (NCI-H358 cells); test: Potency assay: pERK in NCI-H358 cells; type: cell-based, human; conditions: Homo sapiens, read-out: pERK EC50 (H358 KRAS G12C)
Method in brief: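 Cells plated the day before were exposed for 4 h at 37° C, 5% CO2 to a 10-point, 3-fold DMSO dilution series (10 mM top stock), in duplicate. Phospho-ERK was read by AlphaLISA SureFire Ultra or by In-Cell Western with DRAQ5 DNA stain, and IC50 came from a 4-parameter sigmoidal fit.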

[12] = tested on: NCI-H358 (K-Ras G12C); test: CellTiter-Glo cell viability assay, NCI-H358; type: cell-based, human; conditions: Homo sapiens, NCI-H358, 120 h, 5-day treatment; read-out: H358 Cell Viability assay data (K-Ras G12C, IC50)
Method in brief: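 After direct compound addition, plates were incubated to day 5 and equilibrated at room temperature for about 30 minutes before CellTiter-Glo reading. Values derive from luminescence relative to the DMSO mean, fitted with a four-parameter logistic model.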

CCn1c(-c2cccnc2[C@H](C)OC)c2c3cc(ccc31)-c1csc(n1)C[C@H](NC(=O)[C@H](C(C)C)N(C)C(=O)N1CC3CC(C1)O3)C(=O)N1CCC[C@H](N1)C(=O)OCC(C)(C)C2 [Compound A301]
7.00 to 8.00: pIC50 [1]
5.00 to 6.00: pIC50 [2] | pIC50 [3] | pIC50 [9]
> 5.30: pEC50 ([11]; NCI-H358, 4 h)
6.00 to 7.00: pIC50 [4] | pIC50 [5] | pIC50 [6] | pIC50 [7] | pIC50 [8] | pIC50 [10]

CCN(C)C(=O)N(C)[C@H](C(=O)N[C@H]1Cc2nc(cs2)-c2ccc3c(c2)c(c(-c2cccnc2[C@H](C)OC)n3CC)CC(C)(C)COC(=O)[C@@H]2CCCN(N2)C1=O)C(C)C [Compound A336]
7.00 to 8.00: pIC50 ([1]; K-Ras G12C, 5-day treatment) | pIC50 [4] | pIC50 [5] | pIC50 [6] | pIC50 ([10]; K-Ras G12V, 5-day treatment)
> 5.30: pEC50 ([11]; NCI-H358 cells, 4 hours)
6.00 to 7.00: pIC50 [2] | pIC50 [3] | pIC50 [7] | pIC50 [8] | pIC50 [9]

CCn1c(-c2cccnc2[C@H](C)OC)c2c3cc(ccc31)-c1cc(O)cc(c1)C[C@H](NC(=O)[C@H](C(C)C)N(C)C(=O)O[C@H]1CCN(C)C1)C(=O)N1CCC[C@H](N1)C(=O)OCC(C)(C)C2 [Compound A169]
6.00 to 7.00: pIC50 ([1]; K-Ras G12C, 5-day treatment) | pIC50 [4] | pIC50 [5] | pIC50 [6] | pIC50 [7] | pIC50 [9] | pIC50 ([10]; K-Ras G12V, 5-day treatment)
> 5.30: pEC50 ([11]; NCI-H358 cells, 4 hours)
5.00 to 6.00: pIC50 [8]
7.00 to 8.00: pIC50 [2] | pIC50 [3]

CCn1c(-c2cccnc2[C@H](C)OC)c2c3cc(ccc31)-c1cc(O)cc(c1)C[C@H](NC(=O)[C@H](C(C)C)N(C)C(=O)[C@@H]1CCN(C(=O)[C@]3(C)CCCN3C)C1)C(=O)N1CCC[C@H](N1)C(=O)OCC(C)(C)C2 [Compound A342]
6.00 to 7.00: pIC50 ([10]; K-Ras G12V, 5-day treatment)
7.00 to 8.00: pIC50 ([1]; K-Ras G12C, 5-day treatment) | pIC50 [2] | pIC50 [3] | pIC50 [4] | pIC50 [5] | pIC50 [6] | pIC50 [7] | pIC50 [8] | pIC50 [9]
> 5.30: pEC50 ([11]; NCI-H358 cells, 4 hours)

CCn1c(-c2cnccc2COC)c2c3cc(ccc31)-c1cc(O)cc(c1)C[C@H](NC(=O)[C@H](C(C)C)N1CCCC1=O)C(=O)N1CCC[C@H](N1)C(=O)OCC(C)(C)C2 [Compound A40]
6.00 to 7.00: pIC50 [2] | pIC50 [3] | pIC50 [4] | pIC50 [5] | pIC50 [6] | pIC50 [7] | pIC50 [8]
> 5.30: pEC50 ([11]; NCI-H358 cells, 4 hours)
5.00 to 6.00: pIC50 ([1]; K-Ras G12C, 5-day treatment) | pIC50 [9] | pIC50 ([10]; K-Ras G12V, 5-day treatment)

CCn1c(-c2cccnc2[C@H](C)OC)c2c3cc(ccc31)-c1csc(n1)C[C@H](NC(=O)[C@H](C(C)C)N(C)S(=O)(=O)N1CC(OC)C1)C(=O)N1CCC[C@H](N1)C(=O)OCC(C)(C)C2 [Compound A322]
6.00 to 7.00: pIC50 ([1]; K-Ras G12C, 5-day treatment) | pIC50 [2] | pIC50 [4] | pIC50 [5] | pIC50 [6] | pIC50 [8] | pIC50 ([10]; K-Ras G12V, 5-day treatment)
5.00 to 6.00: pIC50 [3] | pIC50 [7] | pIC50 [9]
> 5.30: pEC50 ([11]; NCI-H358 cells, 4 hours)

CCn1c(-c2cccnc2[C@H](C)OC)c2c3cc(ccc31)-c1cc(O)cc(c1)C[C@H](NC(=O)[C@H](C(C)C)N(C)C(=O)C1(C(F)F)CCCO1)C(=O)N1CCC[C@H](N1)C(=O)OCC(C)(C)C2 (stereo partly drawn) [Compound A416]
> 5.30: pEC50 ([11]; NCI-H358 cells, 4 hours)
6.00 to 7.00: pIC50 ([1]; K-Ras G12C, 5-day treatment) | pIC50 [2] | pIC50 [3] | pIC50 [4] | pIC50 [5] | pIC50 [6] | pIC50 [7] | pIC50 [8] | pIC50 [9] | pIC50 ([10]; K-Ras G12V, 5-day treatment)

CCn1c(-c2cnccc2COC)c2c3cc(ccc31)-c1cc(O)cc(c1)C[C@H](NC(=O)[C@H](C(C)C)N(C)C(=O)CNC(=N)N)C(=O)N1CCC[C@H](N1)C(=O)OCC(C)(C)C2 [Compound A68]
6.00 to 7.00: pIC50 [3] | pIC50 [4] | pIC50 [5] | pIC50 [8] | pIC50 [9] | pIC50 [12]
7.00 to 8.00: pIC50 [2] | pIC50 [6] | pIC50 [7]
< 5.00: pIC50 ([1]; K-Ras G12C, 5-day treatment)

CCn1c(-c2cccnc2[C@H](C)OC)c2c3cc(ccc31)-c1cc(O)cc(c1)C[C@H](NC(=O)[C@H](C(C)C)N(C)C(=O)[C@H]1CC[C@@H](C(N)=O)O1)C(=O)N1CCC[C@H](N1)C(=O)OCC(C)(C)C2 [Compound A414]
6.00 to 7.00: pIC50 ([1]; K-Ras G12C, 5-day treatment) | pIC50 [3] | pIC50 [4] | pIC50 [8] | pIC50 [9]
> 5.30: pEC50 ([11]; NCI-H358 cells, 4 hours)
5.00 to 6.00: pIC50 ([10]; K-Ras G12V, 5-day treatment)
7.00 to 8.00: pIC50 [2] | pIC50 [5] | pIC50 [6] | pIC50 [7]

CCn1c(-c2cccnc2[C@H](C)OC)c2c3cc(ccc31)-c1cc(O)cc(c1)C[C@H](NC(=O)[C@H](C(C)C)N(C)C(=O)C1CC3(CCOCC3)CO1)C(=O)N1CCC[C@H](N1)C(=O)OCC(C)(C)C2 (stereo partly drawn) [Compound A413]
> 5.30: pEC50 ([11]; NCI-H358 cells, 4 hours)
6.00 to 7.00: pIC50 ([1]; K-Ras G12C, 5-day treatment) | pIC50 [3] | pIC50 [7] | pIC50 [8] | pIC50 [9] | pIC50 ([10]; K-Ras G12V, 5-day treatment)
7.00 to 8.00: pIC50 [2] | pIC50 [4] | pIC50 [5] | pIC50 [6]

CCn1c(-c2cccnc2[C@H](C)OC)c2c3cc(ccc31)-c1csc(n1)C[C@H](NC(=O)[C@H](C(C)C)N(C)C(=O)N1CC(N)C1)C(=O)N1CCC[C@H](N1)C(=O)OCC(C)(C)C2 [Compound A343]
6.00 to 7.00: pIC50 ([1]; K-Ras G12C, 5-day treatment) | pIC50 [2] | pIC50 [3] | pIC50 [4] | pIC50 [7] | pIC50 [8] | pIC50 [9] | pIC50 ([10]; K-Ras G12V, 5-day treatment)
> 5.30: pEC50 ([11]; NCI-H358 cells, 4 hours)
7.00 to 8.00: pIC50 [5] | pIC50 [6]
